Measurements: patent US20240327432A1, “THIOPHENE-PHENOTHIAZINE COMPOUNDS AND SYNTHESIS METHOD THEREOF, AS WELL AS APPLICATION THEREOF IN PREPARATION OF PHOTOTHERAPY MEDICINES” (Guangzhou Medical University, priority 2023, published 2024)

Experiments:
A549 cells [1] = test: Phototoxicity measurement (CCK-8), A549; format: cell-based, human; conditions: for IC50: Homo sapiens, light or radiation study, 1 h incubation, 630 nm LED, 3.2 J cm^−2, then 24 h, read-out: PDK IC50 (phototoxicity)
Protocol: (§1) (1) Cell culture: HUVEC cells (human umbilical vein endothelial cells), A549 cells (human lung cancer cells), MCF-7 cells (human breast cancer cells), HeLa cells (human cervical cancer cells) and 4T1 cells (mouse breast cancer cells) were cultured in a DMEM high-glucose medium containing 10% fetal bovine serum and 1% penicillin-streptomycin at 37° C. and under a condition of a 5% carbon dioxide content. The HUVEC cells, the A549 cells, the MCF-7 cells, the HeLa cells and the 4T1 cells, at a logarithmic growth phase, were taken and inoculated into a 96-well plate, respectively, with approximately 1×10^4 cells per well, and incubation was performed overnight at 37° C. and under a condition of 5% CO2.
(§2) (3) Phototoxicity measurement: the cells were incubated in the dark with the compound of the present invention of different concentrations for 1 hour, rinsing was performed with PBS, a fresh culture solution was added, and the cells were irradiated with 630 nm LED light (light dose is 3.2 J cm^−2). Then the cells were incubated in the dark environment for 24 hours, and cell viability was measured by the CCK-8 method.

HUVEC cells = test: Dark toxicity measurement (CCK-8), HUVEC; format: cell-based; conditions: Homo sapiens, 24 h in dark
Protocol: as §1
(§3) (2) Dark toxicity measurement: the cells were incubated in a dark environment with the compound of the present invention of different concentrations for 24 hours, and cell viability was measured by a CCK-8 method.

[2] = Fluorescence emission spectrum; format: physicochemical; conditions: for λem (maximum fluorescence emission wavelength): excitation 650 nm, solvent methanol; for ϕF (fluorescence quantum yield): ϕF of MB as reference (0.04, methanol)
Protocol: Detection of the thiophene-phenothiazine compounds prepared in Examples 1-5: the absorption spectrum of the thiophene-phenothiazine compound in an ethanol solution was measured by using a UV-visible spectrophotometer, and spectral properties of the thiophene-phenothiazine compound were analyzed according to Beer-Lambert law; […] with a wavelength of 650 nm, and results are shown in Table 1 and FIGS. 2-3.
(§4) • a. Absorbance was measured in ethanol. • b. During fluorescence emission spectrum measurement, an excitation wavelength was 650 nm, and a solvent was methanol. • c. ϕF of MB was used as a reference [ϕF=0.04, methanol].

MCF-7 cells [3] = test: Dark toxicity measurement (CCK-8), MCF-7; format: cell-based; conditions: Homo sapiens, MCF7, 24 h in dark, read-out: DK IC50 (dark toxicity)
Protocol: as §1, §3

A549 cells [4] = test: Dark toxicity measurement (CCK-8), A549; format: cell-based; conditions: Homo sapiens, 24 h in dark, read-out: DK IC50 (dark toxicity)
Protocol: as §1, §3

4T1 cells [5] = test: Dark toxicity measurement (CCK-8), 4T1; format: cell-based, mouse; conditions: 24 h in dark, read-out: DK IC50 (dark toxicity)
Protocol: as §1, §3

MCF-7 cells [6] = test: Phototoxicity measurement (CCK-8), MCF-7; format: cell-based, human; conditions: for IC50: Homo sapiens, MCF7, light or radiation study, 1 h incubation, 630 nm LED, 3.2 J cm^−2, then 24 h, read-out: PDK IC50 (phototoxicity)
Protocol: as §1, §2

HeLa cells [7] = test: Phototoxicity measurement (CCK-8), HeLa; format: cell-based, human; conditions: for IC50: Homo sapiens, light or radiation study, 1 h incubation, 630 nm LED, 3.2 J cm^−2, then 24 h, read-out: PDK IC50 (phototoxicity)
Protocol: as §1, §2

4T1 cells [8] = test: Phototoxicity measurement (CCK-8), 4T1; format: cell-based, mouse; conditions: for IC50: 1 h incubation, 630 nm LED, 3.2 J cm^−2, then 24 h, read-out: PDK IC50 (phototoxicity)
Protocol: as §1, §2

HeLa cells [9] = test: Dark toxicity measurement (CCK-8), HeLa; format: cell-based; conditions: Homo sapiens, 24 h in dark, read-out: DK IC50 (dark toxicity)
Protocol: as §1, §3

[10] = Absorption spectrum by UV-visible spectrophotometer; format: physicochemical; conditions: measured in ethanol
Protocol: Detection of the thiophene-phenothiazine compounds prepared in Examples 1-5: the absorption spectrum of the thiophene-phenothiazine compound in an ethanol solution was measured by using a UV-visible spectrophotometer, and spectral properties of the thiophene-phenothiazine compound were analyzed according to Beer-Lambert law; and a fluorescence emission spectrum of the thiophene-phenothiazine compound in the ethanol solution was measured under excitation of light with a wavelength of 650 nm, and results are shown in Table 1 and FIGS. 2-3.
as §4

[11] = tested on: subcutaneous breast cancer (4T1) tumor model; test: In vivo PDT inhibition of breast cancer growth; parameters: species or system BALB/c mice; conditions: 21 days
Text: (§5) 7-week-old BALB/c female mice weighing 18 g±1 g (purchased from Zhejiang Vital River Laboratory Animal Technology Co., Ltd) were used to construct a subcutaneous breast cancer (4T1) tumor model. When tumor volumes of the BALB/c mice were approximately 100 mm^3, in vivo anti-tumor experiments began. When the tumor volumes of the BALB/c mice were approximately 200 mm^3, imaging experiments began.
The BALB/c mice with the tumor volumes of approximately 100 mm^3 were taken, and the tumor bearing mice were divided into 4 groups, namely groups A, B, C and D, with 5 mice in each group. The mice in the group A and the group B were injected with 1×PBS 100 μL via tail veins. In addition, the mice in the group C and the group D were injected with compound I-3 via the tail veins at a dose of 1.6 mg/kg; and after 2 hours, the mice in the group B and the group D were irradiated with a light source (655 nm, 300 mW cm^2) for 10 minutes. Body weights and tumor volumes of the mice were measured on the 2nd day, 4th day, 8th day, 12th day, 16th day, and 21st day, respectively. On the 21st day, approximately 0.8 mL of mouse blood was collected using an eyeball blood sampling method, of which 0.4 mL of the mouse blood was placed in an EDTA-2K anticoagulant tube, and the remaining 0.4 mL of the mouse blood was centrifuged for serum collection.

[12] = Photostability under continuous LED irradiation; format: physicochemical; conditions: 630 nm LED, 106 mW cm^−2, FIG. 4
Protocol: Good photostability is a prerequisite for ensuring continuous generation of ROS by the photosensitizers under light excitation, which can effectively prevent decomposition of the photosensitizers after illumination, avoiding a decrease in a ROS generation rate with increasing illumination time. An LED light source (630 nm, 106 mW cm^−2) was used to continuously irradiate the compound (5 μM), and a UV-visible spectrophotometer was used to measure the absorption spectrum of the compound at 200-800 nm. The photostability of the compound was evaluated by comparing changes in maximum absorption values at 600-800 nm after different irradiation times.
Result diagrams of other compounds are similar to that of the compound I-3.

[13] = Singlet oxygen generation, DPBF steady-state method; format: physicochemical; conditions: 2 μM in EtOH, 630 nm LED, irradiation for 20 s
Protocol: The efficiency of producing singlet oxygen through photosensitization is an important index for evaluating the photosensitizers. In the example, a conventional steady-state method was used, 1,3-diphenylisobenzofuran (DPBF) was used as a scavenger, which irreversibly reacted with the singlet oxygen to cause attenuation of the DPBF. An attenuation rate of the DPBF reflects production efficiency of ^1O2. Concentrations of the DPBF in EtOH at multiple irradiation time periods were measured by using a UV/Vis spectrum method.

4T1 subcutaneous tumors [14] = test: Distribution in 4T1 subcutaneous tumors of mice (imaging); format: in vivo, BALB/c mice; conditions: 1.6 mg/kg via tail vein
Protocol: as §5
A solution of 10 mg/L was prepared from the compound I-3 of the present invention by using 1×PBS. The BALB/c mice with the tumor volumes of approximately 200 mm^3 were taken, and the solution was injected into tumor bearing mice via tail veins at a dose of 1.6 mg/kg. Imaging photos were taken at different times using Odyssey CLX, with excitation light of 680 nm and detection light of 720 nm. […] Therefore, the thiophene-phenothiazine compound of the present invention can be completely metabolized within 24 hours, effectively solving a metabolic problem in existing PDT treatment mentioned above.

4T1 subcutaneous tumors [15] = conditions: comparison from prior knowledge; cited from earlier work
[16] = Mus musculus, light or radiation study

λem (maximum fluorescence emission wavelength) [2] | ϕF (fluorescence quantum yield) [2] | λmax (maximum absorption wavelength) [10] | Compound | PI (phototherapeutic index) (A549 cells [1]) | IC50 (A549 cells [1]) | IC50 (HUVEC cells) | IC50 (MCF-7 cells [3]) | IC50 (A549 cells [4]) | IC50 (4T1 cells [5]; Mus musculus) | PI (phototherapeutic index) (MCF-7 cells [6]) | IC50 (MCF-7 cells [6]) | PI (phototherapeutic index) (HeLa cells [7]) | IC50 (HeLa cells [7]) | PI (phototherapeutic index) (4T1 cells [8]) | IC50 (4T1 cells [8]; [16]) | IC50 (HeLa cells [9]) | further results
698 nm | 0.5 | 671 nm | CCN(CC)c1ccc2c(c1)S(Cl)=c1cc(NC)c3ccsc3c1=N2 (stereo not shown) [Compound I-2] | 21.66 | 320 nM | 17600 nM | 2030 nM | 6930 nM | 9790 nM | 14.2 | 140 nM | 23.49 | 130 nM | 24.41 | 400 nM | 3140 nM | 
700 nm | 0.6 | 673 nm | CCCNc1cc2c(c3sccc13)=Nc1ccc(N(CC)CC)cc1S=2Cl (stereo not shown) [Compound I-3] | 31.35 | 210 nM | 13600 nM | 2860 nM | 6590 nM | 8670 nM | 24.00 | 120 nM | 32.72 | 70 nM | 44.51 | 190 nM | 2400 nM | growth of tumor volumes ([11]; group C: 1.6 mg/kg i.v. alone, no irradiation): did not show tumor growth inhibition; growth of tumor volumes ([11]; group D: 1.6 mg/kg i.v. + light 655 nm, 10 minutes, after 2 hours): significantly inhibited; change of maximum absorption value as irradiation time increases (photostability) [12]: does not show a significant change; photosensitive efficiency (1O2, DPBF attenuation) [13]: 80%; time within which metabolized in mice (4T1 subcutaneous tumors [14]): ≤ 24 h; time after which compound gradually accumulates in tumors (4T1 subcutaneous tumors [14]; 4T1 tumor bearing mice): 1 h; time of maximum accumulation in the tumors (4T1 subcutaneous tumors [14]; 4T1 tumor bearing mice): 2 h; imaging signal after 24 hours (4T1 subcutaneous tumors [14]; 24 hours): basically not detected

More lines, now with the values behind:

Compound | λem (maximum fluorescence emission wavelength) [2] | ϕF (fluorescence quantum yield) [2] | λmax (maximum absorption wavelength) [10] | PI (phototherapeutic index) (A549 cells [1]) | IC50 (A549 cells [1]) | IC50 (HUVEC cells) | IC50 (MCF-7 cells [3]) | IC50 (A549 cells [4]) | IC50 (4T1 cells [5]; Mus musculus) | PI (phototherapeutic index) (MCF-7 cells [6]) | IC50 (MCF-7 cells [6]) | PI (phototherapeutic index) (HeLa cells [7]) | IC50 (HeLa cells [7]) | PI (phototherapeutic index) (4T1 cells [8]) | IC50 (4T1 cells [8]; [16]) | IC50 (HeLa cells [9]) | further results
CCN(CC)c1ccc2c(c1)S(Cl)=c1cc(N)c3ccsc3c1=N2 (stereo not shown) [Compound I-1] | 692 nm | 0.4 | 663 nm | 16.47 | 460 nM | 25200 nM | 3560 nM | 7540 nM | 15400 nM | 9.03 | 390 nM | 10.26 | 360 nM | 17.69 | 870 nM | 3740 nM | 
CCCCCNc1cc2c(c3sccc13)=Nc1ccc(N(CC)CC)cc1S=2Cl (stereo not shown) [Compound I-4] | 701 nm | 0.5 | 673 nm | 11.09 | 310 nM | 10400 nM | 3490 nM | 3490 nM | 5480 nM | 9.05 | 390 nM | 4.32 | 440 nM | 4.16 | 1320 nM | 1890 nM | 
CCCCCCCNc1cc2c(c3sccc13)=Nc1ccc(N(CC)CC)cc1S=2Cl (stereo not shown) [Compound I-5] | 700 nm | 0.6 | 674 nm | 8.57 | 420 nM | 7630 nM | 3340 nM | 3570 nM | 4270 nM | 7.11 | 470 nM | 3.32 | 430 nM | 2.22 | 1920 nM | 1440 nM | 
CN(C)c1ccc2nc3ccc(=[N+](C)C)cc-3sc2c1 [MB, Methylene blue, reference compound] |  |  |  |  |  |  |  |  |  |  |  |  |  |  |  |  | IC50 (4T1 cells [5]): 25700 nM; IC50 (4T1 cells [8]): 14100 nM
porfimer sodium |  |  |  |  |  |  |  |  |  |  |  |  |  |  |  |  | metabolic time in the bodies (4T1 subcutaneous tumors [15]): about ten weeks
